Molecules are shown by their SMILES. Several values for one entry are separate records, joined by “and”; a condition that tells them apart may be missing. Identical values can stand only once.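 Protocol summary: plate cells (96-well), add compound at 5 concentrations, incubate 48 h, interpolate endpoints linearly. GI50: concentration for 50% inhibition of growth. TGI marks complete inhibition of growth.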

For 29 compounds, TGI and GI50 results are on record in PubChem BioAssay (NCI).

Assay in all cases: DTP human tumour cell line panel, 48 h
In experiment [1] the test system is PC-3 prostate.
For experiment [2], the system named is DU-145 prostate.
Experiment [3] has as its system A498 renal.
In experiment [4] the test system is OVCAR-4 ovarian.
For experiment [5], the system named is UO-31 renal.
Experiment [6] has as its system M14 melanoma.
For experiment [7], the system named is HOP-62 NSCLC.
Experiment [8] has as its system SK-MEL-5 melanoma.
The subject of experiment [9] is SR leukemia.
For experiment [10], the system named is NCI-H522 lung.

Broadly, the TGI is the concentration giving total growth inhibition. A low value points to more potent growth arrest. In the case of `CN1[C@@H]2C[C@@H](OC(=O)[C@H](CO)c3ccccc3)C[C@H]1[C@@H]1O[C@@H]12`, the TGI in experiment [1], in experiment [2], in experiment [3], in [4], in experiment [5] and in experiment [6] was above 100 µM in each case. Besides, the TGI in experiment [7], in experiment [8], in experiment [9] and in experiment [10] was above 100 µM in each case.

For the compound `CCOC(=O)NC(Nc1ccc([N+](=O)[O-])cc1)(C(F)(F)F)C(F)(F)F`, the TGI in experiment [1], in [2], in experiment [3], in experiment [5], in experiment [6] and in [7] was above 100 µM in each case. Moreover, the TGI in [8], in experiment [9] and in [10] was above 100 µM in each case.

`Nc1nc(Cl)cc(NCC2(CO)CCCC2)n1`: the TGI in [1], in experiment [2], in experiment [3], in [4], in experiment [5] and in [6] was above 100 µM each time. Besides, the TGI in experiment [7], in [8], in [9] and in experiment [10] was above 100 µM throughout.

Regarding `C=C1C(=O)C=C[C@]2(C)CC[C@H]3C(=C)C(=O)O[C@@H]3[C@@H]12`, the TGI was determined as 15.7 µM in [1]; 5.13 µM in experiment [2]; 13.5 µM in experiment [3]; 5.78 µM in [4]; 9 µM in [5]; 3.96 µM in [6]. For the same compound, the TGI in experiment [7] came to 6.36 µM; in experiment [8], 5.93 µM; in experiment [9] it was 6.11 µM; in [10] it was 3.77 µM.

Take `CC(C)(Cl)C(Br)CCC(=CCCl)CBr` (mixture of isomers): the TGI in experiment [1] worked out at 7.22 µM; in experiment [2], 10.7 µM; in experiment [3], 9.22 µM; in [4], 5.31 µM; in experiment [5] it was 3.42 µM; in experiment [6] it was 4.05 µM. For the same compound, the TGI in experiment [7] was 8.33 µM; in [8], 11.9 µM; in experiment [9] it was 3.92 µM; in experiment [10] it was 2.24 µM.

For `C=C(Cl)C(C)(Cl)CCC(Br)C(C)(C)Cl` (centres undefined), the TGI is above 100 µM in [1]; 47.5 µM in experiment [2]; above 100 µM in experiment [3]; 33.1 µM in [4]; 29.3 µM in [5]; 34.7 µM in experiment [6]. Also, the TGI worked out at 53.4 µM in [7], 30.8 µM in experiment [8], 93.6 µM in experiment [9] and 23.5 µM in [10].

On to `CSc1ncnc2c1ncn2CCC#N`, for which the TGI in [1], in experiment [2], in [3], in experiment [4], in [5] and in experiment [6] was above 100 µM throughout. Also, the TGI in experiment [7], in experiment [8], in experiment [9] and in experiment [10] was above 100 µM throughout.

Take `CCNC(=O)Nc1cccc(NC(=O)NCC)n1`: the TGI in experiment [1], in experiment [2], in experiment [3], in experiment [4], in [5] and in experiment [6] was above 100 µM each time. The TGI in [7], in experiment [8], in [9] and in [10] was above 100 µM in each case.

For the compound `COc1ccc2c(c1)CCN1CCc3ccccc3CC21` (centres undefined), the TGI in experiment [1] was above 100 µM; in experiment [2] it was above 100 µM; in experiment [3], above 100 µM; in experiment [4], above 100 µM; in experiment [5], 36 µM; in experiment [6], 36.6 µM. Further, the TGI in [7] is above 100 µM; in [8], 30.2 µM; in experiment [9], above 100 µM; in experiment [10], above 100 µM.

As for `[N-]=[N+]=NC1=C(c2ccccn2)C(=O)c2cccc3cccc1c23`, the TGI is above 100 µM in experiment [1]; above 100 µM in [2]; 31.5 µM in [3]; above 100 µM in [4]; 36.1 µM in [5]; above 100 µM in experiment [6]. For the same compound, the figures for the TGI in experiment [7], in experiment [8] and in [9] were above 100 µM, 22.1 µM and above 100 µM, respectively.

Regarding `C=CCOc1ccc(C2(O)c3ccccc3C3=NCCCN32)cc1` (centres undefined), the TGI in [1] is above 100 µM; in experiment [2], above 100 µM; in experiment [3] it was above 100 µM; in [4], above 100 µM; in experiment [5], above 100 µM; in experiment [6], 35.1 µM. Further, the TGI is above 100 µM in experiment [7], 45.7 µM in experiment [8], above 78.8 µM in experiment [9] and above 100 µM in experiment [10].

With `Oc1cccc(-c2nc3cc(F)ccc3s2)c1`, the concentration for total growth inhibition (TGI) in [1] came out at 65 µM; in experiment [2], 57.9 µM; in [3], 27.6 µM; in experiment [4], 52.3 µM; in [5], 52.5 µM; in [6] it was 37.8 µM. In addition, the TGI in experiment [8] came to 25 µM; in experiment [9], 47.8 µM; in experiment [10], 25.7 µM.

`CC(C)(C)C(=O)CC1=Nc2ccccc2SC1(O)CC(=O)C(C)(C)C` (centres undefined): the TGI is 73.6 µM in experiment [1]; above 100 µM in [2]; above 100 µM in experiment [3]; 44.2 µM in experiment [5]; 81.9 µM in [6]; 76.2 µM in experiment [7]. The figures for the TGI in experiment [8], in [9] and in experiment [10] were 62.7 µM, 33 µM and 34.4 µM, respectively.

On to `COc1ccc2cc(C(C)C(=O)N3CCOC3=O)ccc2c1` (centres undefined), for which the TGI in experiment [1], in experiment [2], in experiment [3], in experiment [4], in experiment [5] and in experiment [6] was above 100 µM each time. In addition, the TGI in [7], in experiment [8], in [9] and in experiment [10] was above 100 µM each time.

On to `Nc1ccc(C(=O)N2CCC[C@H]2CO)c(N)c1`, for which the TGI in [1], in experiment [2], in [3], in experiment [4], in experiment [5] and in experiment [6] was above 100 µM in each case. Moreover, the TGI in experiment [7], in experiment [8], in [9] and in experiment [10] was above 100 µM throughout.

As usually defined, the GI50 is the concentration at which growth is held to half of that of the control. For the compound `CN(C)CCOC1(Cc2ccc(F)cc2)CCC(C(C)(C)C)CC1` (centres undefined), the TGI was 17.4 µM and 19 µM in [1]; 21.4 µM and 22.3 µM in [2]; 26 µM and 29.3 µM in [3]; 15 µM and 22.5 µM in experiment [4]; 19.2 µM and 18.2 µM in [5]; 3.27 µM and 3.93 µM in experiment [6]. For the same compound, the TGI in [7] is 19.3 µM and 18.8 µM; in experiment [8], 3.42 µM and 5.03 µM; in [9] it was 8.37 µM and 6.34 µM; in [10] it was 14.2 µM and 23.5 µM. Moreover, the GI50 in [4] is 4.33 µM and 9.3 µM.

Consider `C=CC[C@]12C=C(OC)[C@@H](O)[C@](OC)(C(c3cc(OC)c4c(c3)OCO4)[C@H]1C)[C@H]2OC(C)=O` (some centres undefined), for which the TGI in experiment [1], in experiment [2], in experiment [3], in experiment [4], in experiment [5] and in [6] was above 100 µM each time. Besides, the TGI in experiment [7], in experiment [8], in experiment [9] and in experiment [10] was above 100 µM throughout.

`Nc1ccc(S2(c3ccc(N)cc3)C=C(c3ccccc3)C(c3ccccc3)=C2)cc1`: the TGI in experiment [1] was above 100 µM; in experiment [2] it was above 90.3 µM; in experiment [3], above 90.3 µM; in experiment [4] it was above 25.2 µM; in experiment [5], above 90.5 µM; in [6], above 100 µM. Also, the TGI in [7], in experiment [8] and in experiment [9] was above 100 µM each time.

As to `CC(=O)NC1c2ccccc2C(C)(C)C12CCC1(CC2)OCCO1` (centres undefined), the TGI in [1], in [2], in [4], in [5], in [6] and in experiment [7] was above 100 µM each time. For the same compound, the TGI in experiment [8], in experiment [9] and in experiment [10] was above 100 µM in each case.

With `CC(C)=CCNc1ncnc2c1ncn2CCC#N`, the TGI in [1], in [2], in experiment [3], in experiment [4], in experiment [5] and in experiment [6] was above 100 µM throughout. Further, the TGI in experiment [7], in experiment [8], in experiment [9] and in experiment [10] was above 100 µM in each case.

As for `CN(C)c1ccc(C2SCC(=O)N2c2ccc(Oc3ccc(Cl)cc3)c(Cl)c2)cc1` (centres undefined), the TGI was 55.6 µM in experiment [1]; 57.2 µM in [2]; 69 µM in experiment [4]; 29.6 µM in experiment [5]; 69 µM in [6]; 41 µM in [7]. In addition, the TGI worked out at 36.8 µM in experiment [8], 57.3 µM in experiment [9] and 42.9 µM in [10].

`O=C1C(=Cc2ccccc2O)N=C(c2ccccc2)N1n1c(-c2ccccc2)nc2ccccc2c1=O`: the TGI in [1] is above 100 µM; in experiment [2] it was above 100 µM; in [3], 64.1 µM; in experiment [5], 86.5 µM; in experiment [6], 57.1 µM; in experiment [7], 96.8 µM. Also, the total growth inhibition concentration (TGI) in [8] was 41.7 µM; in [9], above 100 µM; in experiment [10], 67.1 µM.

For the compound `CCOC(=O)C1C2CCC1CC(=NNc1ccc([N+](=O)[O-])cc1[N+](=O)[O-])C2` (centres undefined), the TGI in experiment [1], in experiment [2], in experiment [4], in [5], in [6] and in experiment [7] was above 50 µM each time. Besides, the TGI in experiment [8], in experiment [9] and in [10] was above 50 µM in each case.

`O=C1c2ccccc2C2(c3ccc(Cl)cc3)N[C@H]3CCCC[C@@H]3N12` (some centres undefined): the TGI in experiment [1], in experiment [2], in experiment [3], in experiment [4], in experiment [5] and in [7] was above 100 µM throughout. Besides, the TGI in experiment [8] and in experiment [9] was above 100 µM throughout.

For the compound `CCCCN=C(c1ccccc1)N1CCOCC1`, the TGI in experiment [1], in experiment [2], in experiment [3], in experiment [5], in experiment [6] and in [7] was above 100 µM each time. In addition, the TGI in experiment [8] and in experiment [9] was above 100 µM in each case.

As for `O=C1NC(=O)C(CC2CCCCCCCCCCC2=O)C(=O)N1` (centres undefined), the TGI in experiment [1], in experiment [2], in [4], in [5], in experiment [6] and in experiment [7] was above 100 µM throughout. Besides, the TGI in experiment [8] is above 100 µM; in [9], 5.28 µM; in experiment [10], above 100 µM.

On to `O=C(O)c1ccc(OCc2nc3cc(C(F)(F)F)ccc3nc2-c2ccccc2)cc1`, for which the TGI in experiment [1] was above 100 µM; in experiment [2], above 100 µM; in experiment [3] it was above 100 µM; in experiment [5], 39 µM; in experiment [6], above 100 µM; in experiment [7], above 100 µM. The TGI in experiment [8], in [9] and in experiment [10] was above 100 µM each time.

As to `COC(=O)C1=C(C)NC(C)=C(C(=O)OC)C1c1nc2sccn2c1[N+](=O)[O-]`, the TGI in experiment [1], in [2], in [3], in experiment [4], in experiment [5] and in [6] was above 100 µM in each case. In addition, the TGI in experiment [7], in experiment [8] and in experiment [9] was above 100 µM in each case.

On to `NNC(=O)CSc1nc2ccccc2c(=O)n1N`, for which the TGI in [1], in experiment [2], in [3], in experiment [4], in [5] and in [6] was above 100 µM each time. Besides, the TGI in [8], in [9] and in [10] was above 100 µM in each case.
